Data published in patent publication US8962580B2, “Chemical modifications of monomers and oligonucleotides with cycloaddition” (Alnylam Pharmaceuticals, Inc., priority 2008, dated 2015).
Where two headings read alike, the source gives them in different places. {L125} = ligand L125 of the publication, structure not given; d = 2'-deoxy (DNA); m = 2'-O-methyl; r = 2'-OH (RNA)

System: firefly luciferase gene
Assay: Dual-luciferase assay for RNA interfering evaluation
Type: cell-based
Details: for IC50: read-out: IC 50 Values
Experimental: 1. Dual-Luciferase Assay for RNA Interfering Evaluation
Modified RNAs obtained by solid-phase synthesis and click reactions were evaluated in RNA interfering in dual-luciferase assays. Duplexes were prepared by heating at 95° C. for 2 min and cooling to room temperature for 2 hours in 1X Phosphate buffered saline. (Table 12-14).
The ability of modified siRNAs to suppress gene expression was studied by a dual-luciferase assay using a pGL4 vector (Promega), which contained the Renilla and firefly luciferase genes. The siRNA sequences were designed to target the firefly luciferase gene. Stably transfected HeLa cells were then transfected with the indicated amounts of siRNAs, and the signals of firefly luciferase were normalized to those of renilla luciferase. HeLa SS6 cells were stably transfected with plasmids encoding firefly (target) and Renilla (control) luciferases.
RNA interference methods: Hela cells were grown at 37° C., 5% CO2 in Dulbecco's modified Eagles's medium (DMEM, GIBCO) supplemented with 10% fetal bovine serum (FBS) and 1% antibiotic. The cells were maintained in the exponential growth phase. The cells were then plated in 96-well plates (0.1 mL medium per well) to reach about 90% confluence at transfection. Transfection was allowed to proceed for 24 hr at 37° C. and on day 2 the culture medium was changed to OPTIMEM 1, a reduced serum media (GIBCO). Two luciferase plasmids, Renilla luciferase (pRL-CMV) and firefly luciferase (pGL3) from Promega, were used as control and reporter, respectively. Transfection of siRNAs was carried out with Lipofectamine 2000 (Invitrogen) as described by the manufacturer for adherent cell lines. The final volume was 150 uL per well. On day 2 cells are transfected with, firefly luciferase targeting, siRNA of varying concentrations ranging from 2 pM to 8 nM mediated by Lipofectamine 2000 reagent (Invitrogen). After 24 h, cells were analyzed for both firefly and renilla luciferase expression using a plate luminometer with a delay time of 2 s and an integrate time of 10 s. (VICTOR2, PerkinElmer, Boston, Mass.) and the Dual-Glo Luciferase Assay kit (Promega), FIG. 24. Firefly/renilla luciferase expression ratios were used to determine percent gene silencing relative to untreated (no siRNA) controls. Values generated represent the mean of triplicates.
The screening process began with a primary screen where all the compounds were screened against the parent unmodified duplex as a comparison. […] The final set of compounds was compared to one of our best modifications AD3202 and it can be seen that these compounds match up to AD 3202 in potency, however the exact mechanism by which the Uda modification contributes to improved activity is to be determined through further studies.
Dual HeLa (HeLa cells transfected with PGL4 plasmid for luciferase expression)
Tissue culture medium, trypsin and Lipofectamine-2000—purchased from Invitrogen (Carlsbad, Calif.).
DMEM supplemented with 10% fetal bovine serum, 1% antibiotic solution.
siRNA treatment was performed using Opti-MEM (Invitrogen) containing 1 mg/ml Lipofectamine2000
DMEM without phenol red, Promega Dual Glo Luciferase Assay kit, 0.25% Trypsin (Invitrogen).

[1] = Table 13 (Part II), stably transfected HeLa cells, Lipofectamine 2000, 24 h, firefly/renilla luciferase ratio
[2] = Table 12 (Part I), stably transfected HeLa cells, Lipofectamine 2000, 24 h, firefly/renilla luciferase ratio

Row | Substance | IC50 [1] [nM] | IC50 [2] [nM] | other results
1 | AD-1000: parent unmodified siRNA duplex: sense 1000 CUUACGCUGAGUACUUCGAdTdT, antisense 1001 UCGAAGUACUCAGCGUAAGdTdT (sense CUUACGCUGAGUACUUCGATT; antisense UCGAAGUACUCAGCGUAAGTT; sugars from the 5' end r19 d2, backbone not given here) [reference compound] | 0.38 |  | IC50 (Table 14 (Part III), stably transfected HeLa cells, Lipofectamine 2000, 24 h, firefly/renilla luciferase ratio): 0.326 nM; IC50 (Table 15 (Part IV), selected potent duplexes, secondary screen / head to head comparison): 0.242 nM
2 | AD-20156: siRNA duplex: sense 33031.1 CUUACGCUGAGUACUUCGAdT(Uda2p), antisense 1001; Uda2p-3′end (sense CUUACGCUGAGUACUUCGAT; antisense UCGAAGUACUCAGCGUAAGTT; Uda2p 3' end on sense, chemistry not fully specified) | 1.18 |  | 
3 | AD-20157: siRNA duplex: sense 33032.1 CUUACGCUGAG(Uda)ACUUCGAdT(Uda2p), antisense 1001; U12-->Uda, Uda2p-3′end (sense CUUACGCUGAGUACUUCGAT; antisense UCGAAGUACUCAGCGUAAGTT; U12 Uda, Uda2p 3' end on sense, chemistry not fully specified) |  |  | IC 50 Values (nM) [1]: NA—out
4 | AD-20158: siRNA duplex: sense 33033.1 C(Uda)UACGCUGAGUACUUCGAdT(Uda2p), antisense 1001; U2-->Uda, Uda2p-3′end (sense CUUACGCUGAGUACUUCGAT; antisense UCGAAGUACUCAGCGUAAGTT; U2 Uda, Uda2p 3' end on sense, chemistry not fully specified) | 1.5 |  | Fold Increase in activity as compared to parent (Table 13 (Part II), parent AD-1000): 2 fold
5 | AD-20201: siRNA duplex: sense 36862 CUUACGCUGAGUACUUCGAdTdTL125, antisense 1001; 3′ L125 (sense CUUACGCUGAGUACUUCGATT; antisense UCGAAGUACUCAGCGUAAGTT; 3' L125 on sense, chemistry not fully specified) |  | 0.922 | 
6 | AD-20202: siRNA duplex: sense 37075 CUUACGCUGAGUACUUCGAdTdT(T1y), antisense 1001; 3′ (Tly) (sense CUUACGCUGAGUACUUCGATTT; antisense UCGAAGUACUCAGCGUAAGTT; 3' (Tly) on sense, chemistry not fully specified) |  | 1.12 | 
7 | AD-20203: siRNA duplex: sense 37077 CUUACGCUGAGUACUUCGAdTdT(T31y), antisense 1001; 3′ (T31y) (sense CUUACGCUGAGUACUUCGATT; antisense UCGAAGUACUCAGCGUAAGTT; 3' (T31y) on sense, chemistry not fully specified) |  | 1.41 | 
8 | AD-20321: siRNA duplex: sense 38103.1 AAcGcuGGGcGuuAAucAAdTdTL125 (2′OMe-all Py and 3′ L125), antisense 24599 UUGAUuAACGCCcAGCGUUdTsdT (sense AACGCUGGGCGUUAAUCAATT; antisense UUGAUUAACGCCCAGCGUUTT; sense: DNA at T, 2'-O-methyl at CU, RNA at AG, 3' {L125}, backbone not given here; antisense: sugars from the 5' end rrrrrmrrrrrrmrrrrrrdd, backbone not given here) |  |  | IC 50 Values (nM) [2]: out of range
